The results in this text go back to ChEMBL document CHEMBL1141099, “Discovery of N-(2,6-dimethylphenyl)-substituted semicarbazones as anticonvulsants: hybrid pharmacophore-based design” (2005).

In general, inhibition refers to the change of the read-out against control, counted positive when it falls. Read a high inhibition as strong suppression. The Inhibition is how much of the control response was suppressed. Read a low Inhibition as a response near the control.

Experiment [1] concerns Mus musculus. Nature of the experiment: Minimum dose required for anticonvulsant activity when given i.p., at 4 hr in mice upon maximal electroshock seizure. Type of experiment: functional.
The subject of experiment [2] is Rattus norvegicus. The experiment in a line: Number of rats protected at a dose of 30 mg/Kg when given oral at 0.25 hr upon maximal electroshock seizure; Total number of rats = 4. It counts as functional. A general note: In the maximal electroshock model the usual endpoint is tonic extension of the hind limbs.
In experiment [3] the test system is Mus musculus. The experiment in a line: Minimum dose required for anticonvulsant activity when given i.p., at 2 hr in mice upon subcutaneous strychnine seizure. Type of experiment: functional.
Experiment [4] has as its system Rattus norvegicus. The experiment in a line: Number of rats protected at a dose of 30 mg/Kg when given oral at 0.5 hr upon maximal electroshock seizure; Total number of rats = 4. Type of experiment: functional.
In experiment [5] the test system is Mus musculus. The experiment in a line: Minimum dose required for anticonvulsant activity when given i.p., at 0.5 hr in mice upon maximal electroshock seizure. It counts as functional.
Experiment [6] has as its system Rattus norvegicus. Nature of the experiment: Number of rats protected at a dose of 30 mg/Kg when given oral at 1 hr upon maximal electroshock seizure; Total number of rats = 4. It counts as functional.
Experiment [7] has as its system Rattus norvegicus. The experiment in a line: Number of rats protected at a dose of 30 mg/Kg when given oral at 4 hr upon maximal electroshock seizure; Total number of rats = 4. It counts as functional.
Experiment [8] relates to Mus musculus. The experiment in a line: Minimum dose required for anticonvulsant activity when given i.p., at 0.5 hr in mice upon subcutaneous pentylenetetrazole seizure. It counts as functional.
The subject of experiment [9] is Rattus norvegicus. The experiment in a line: Number of rats protected at a dose of 30 mg/Kg when given oral at 2 hr upon maximal electroshock seizure; Total number of rats = 4. Type of experiment: functional.
For experiment [10], the system named is Mus musculus. Nature of the experiment: Minimum dose required for anticonvulsant activity when given i.p., at 0.5 hr in mice upon subcutaneous strychnine seizure. Type of experiment: functional.
Experiment [11] relates to Mus musculus. Nature of the experiment: Minimum dose required for anticonvulsant activity when given i.p., at 0.5 hr in mice upon neurotoxicity seizure using rotarod test. Type of experiment: functional.
Experiment [12] has as its system Mus musculus. The experiment in a line: Minimum dose required for anticonvulsant activity when given i.p., in mice upon neurotoxicity seizure using rotarod test. Background: The rotarod test checks motor coordination on a turning rod.
Experiment [13] concerns Mus musculus. The experiment in a line: Mean sleeping time evaluated for CNS study using the pentobarbital-induced narcosis model at a dose of 100 mg/Kg when given i.p., in mice (No. of animals 6).
Experiment [14] concerns Rattus norvegicus. Nature of the experiment: Effect on GABA level in rat whole brain concentration after 7 days post-treatment at a dose of 30 mg/Kg when given orally; Control 50.5. It counts as functional.
For experiment [15], the system named is Rattus norvegicus. The experiment in a line: Effect on GABA level in rat whole brain concentration after 2 hr post-treatment at a dose of 100 mg/Kg when given i.p.; Control 48.4. Type of experiment: functional.
For experiment [16], the target named is 4-aminobutyrate aminotransferase, mitochondrial (Rattus norvegicus) (UniProt P50554). Nature of the experiment: In vitro percentage inhibition activity against GABA-T enzyme at a concentration of 1.25 uM after 6 h.
The target is the same in experiment [17]. Nature of the experiment: In vitro percentage inhibition activity against GABA-T enzyme at a concentration of 1.25 uM after 4.5 h.
For experiment [18], the species on record is Rattus norvegicus. Nature of the experiment: Ex vitro percentage inhibition activity against GABA-T enzyme at a concentration of 1.25 uM after 3 h. Type of experiment: functional.
The species named for experiment [19] is Rattus norvegicus. The experiment in a line: Ex vitro percentage inhibition activity against GABA-T enzyme at a concentration of 1.25 uM after 6 h. It counts as functional.
For experiment [20], the target named is 4-aminobutyrate aminotransferase, mitochondrial (Rattus norvegicus) (UniProt P50554). Nature of the experiment: In vitro percentage inhibition activity against GABA-T enzyme at a concentration of 1.25 uM after 3 h.
The species named for experiment [21] is Rattus norvegicus. The experiment in a line: Ex vitro percentage inhibition activity against GABA-T enzyme at a concentration of 1.25 uM after 4.5 h. It counts as functional.

Molecules are shown by their SMILES.

4-aminobutyrate aminotransferase, mitochondrial (Rattus norvegicus), sequence (P50554 28-500 limits assumed): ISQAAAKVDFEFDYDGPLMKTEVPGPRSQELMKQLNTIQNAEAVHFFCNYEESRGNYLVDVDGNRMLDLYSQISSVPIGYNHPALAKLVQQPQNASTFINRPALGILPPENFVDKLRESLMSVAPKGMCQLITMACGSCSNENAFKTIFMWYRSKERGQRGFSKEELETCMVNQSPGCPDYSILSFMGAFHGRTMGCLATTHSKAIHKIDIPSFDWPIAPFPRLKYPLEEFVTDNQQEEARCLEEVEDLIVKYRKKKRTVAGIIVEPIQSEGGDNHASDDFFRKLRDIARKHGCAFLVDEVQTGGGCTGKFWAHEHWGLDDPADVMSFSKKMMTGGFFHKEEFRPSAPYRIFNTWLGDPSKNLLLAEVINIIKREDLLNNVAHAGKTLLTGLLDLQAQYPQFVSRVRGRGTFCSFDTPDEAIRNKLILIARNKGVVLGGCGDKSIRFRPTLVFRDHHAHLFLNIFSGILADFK

Turning to `Cc1cccc(C)c1NC(=O)N/N=C/c1ccc([N+](=O)[O-])cc1`, the MES is 300 mg/kg in [1] and 100 mg/kg in experiment [5]. Also, the Activity in [2] came out at 1; in [4], 1; in experiment [6], 2; in experiment [7], 1; in experiment [9] it was 1. The STY seizure stood at 100 mg/kg in experiment [3] and 30 mg/kg in experiment [10]. The compound also came in with a PTZ seizure in [8] of 300 mg/kg. The compound also registered an NT in experiment [11] of 300 mg/kg.

Consider `Cc1cccc(C)c1NC(=O)NN=C(c1ccccc1)c1ccccc1`, for which the MES came to 300 mg/kg in experiment [1] and 100 mg/kg in experiment [5]. Moreover, the Activity in [2] turned out to be 1; in experiment [4] it was 1; in experiment [6] it was 1; in experiment [7], 0; in [9], 1. The compound further came in with a PTZ seizure in [8] of 300 mg/kg. This compound returned an STY seizure in experiment [10] of 300 mg/kg. In experiment [11], this compound yielded an NT of 300 mg/kg.

The compound `CCC1(c2ccccc2)C(=O)NC(=O)NC1=O` [PHENOBARBITAL] showed an NT in experiment [12] of 100 mg/kg. The Time in experiment [13] was 54 min.

Take `C/C(=N\NC(=O)Nc1c(C)cccc1C)c1ccccc1O`: the MES turned out to be 300 mg/kg in [1] and 100 mg/kg in experiment [5]. The Activity in [2] was 3; in experiment [4] it was 1; in experiment [6], 2; in experiment [7] it was 4; in experiment [9], 3. In addition, the STY seizure in experiment [3] was determined as 300 mg/kg; in experiment [10] it was 100 mg/kg. Further, the PTZ seizure in experiment [8] turned out to be 300 mg/kg.

As for `C/C(CC(C)C)=N/NC(=O)Nc1c(C)cccc1C`, the MES in experiment [1] worked out at 300 mg/kg; in experiment [5], 100 mg/kg. Also, the Activity is listed as 1 in experiment [2]; 2 in experiment [4]; 2 in experiment [6]; 2 in experiment [7]; 4 in experiment [9]. Further, the STY seizure came to 100 mg/kg in [3] and 30 mg/kg in [10].

For `Cc1cccc(C)c1NC(=O)NN=C1CCCCC1`, the MES in experiment [1] is 300 mg/kg; in experiment [5], 100 mg/kg. The Activity in experiment [2] was found to be 1; in experiment [4] it was 1; in [6], 2; in experiment [7], 3; in experiment [9], 4. Also, the values for the STY seizure in experiment [3] and in [10] were 300 mg/kg and 100 mg/kg, respectively. Also, the NT in experiment [11] stood at 300 mg/kg.

For the compound `C/C(=N\NC(=O)Nc1c(C)cccc1C)c1cccc(N)c1`, the MES in experiment [1] was 300 mg/kg; in experiment [5], 100 mg/kg. For the same compound, the Activity in [2] was 1; in experiment [4] it was 3; in experiment [6] it was 1; in experiment [7], 3; in [9], 2. In addition, the STY seizure in [3] was found to be 300 mg/kg; in experiment [10], 100 mg/kg. In experiment [11], this compound returned an NT of 300 mg/kg.

As for `CN1C(=O)CC(=O)N(c2ccccc2)c2cc(Cl)ccc21` [CLOBAZAM], the Activity in experiment [14] is listed as 110 ug/100mg of tissue; in [15], 101 ug/100mg of tissue.

Consider `Cc1cccc(C)c1NC(=O)N/N=C/c1ccccc1Cl`, for which the MES in [1] amounted to 300 mg/kg; in experiment [5] it was 100 mg/kg. For the same compound, the Activity worked out at 2 in [2]; 1 in experiment [4]; 1 in [6]; 4 in experiment [7]; 1 in experiment [9]. The STY seizure in experiment [3] was determined as 100 mg/kg; in [10], 30 mg/kg. The compound also registered a PTZ seizure in [8] of 300 mg/kg. In experiment [11], this compound showed an NT of 300 mg/kg.

Turning to `CC(C)=NNC(=O)Nc1c(C)cccc1C`, the MES in [1] came to 300 mg/kg; in experiment [5], 100 mg/kg. Further, the Activity in experiment [2] was determined as 3; in experiment [4] it was 4; in experiment [6] it was 4; in experiment [7], 2; in [9] it was 3. The STY seizure in experiment [3] and in experiment [10] was 100 mg/kg each time. Moreover, in experiment [8], the PTZ seizure was found to be 300 mg/kg. In experiment [11], this compound came in with an NT of 300 mg/kg.

`CCCC(CCC)C(=O)O` [VALPROIC ACID] displayed an NT in experiment [12] of 300 mg/kg.

Regarding `Cc1cccc(C)c1NC(=O)NN=C(Cc1ccccc1)Cc1ccccc1`, the MES in experiment [1] and in experiment [5] was 300 mg/kg each time. Further, the Activity in experiment [2] came out at 0; in [4], 1; in [6], 1; in experiment [7], 0; in experiment [9], 0. The STY seizure in [10] is 300 mg/kg. Further, the NT in experiment [11] was found to be 300 mg/kg.

Take `Cc1cccc(C)c1NC(=O)N/N=C\c1ccco1`: the MES in [1] was 300 mg/kg; in experiment [5] it was 100 mg/kg. The Activity is reported as 0 in experiment [2]; 2 in [4]; 1 in experiment [6]; 3 in [7]; 4 in experiment [9]. Besides, the values for the STY seizure in experiment [3] and in experiment [10] were 300 mg/kg and 100 mg/kg, respectively. For the same compound, in experiment [8], the PTZ seizure was determined as 300 mg/kg. The compound further returned an NT in [11] of 300 mg/kg.

Take `NNCCc1ccccc1` [PHENELZINE]: the inhibition in experiment [16] was 62%; in experiment [17] it was 75%; in [20], 0%. The Inhibition came out at 25% in experiment [18], 65% in [19] and 85% in experiment [21].

Turning to `Cc1cccc(C)c1NC(=O)NN=C1CCCC1`, the MES in [1] worked out at 300 mg/kg; in experiment [5], 100 mg/kg. In addition, the Activity in [2] is on record as 2; in [4] it was 2; in experiment [6], 1; in experiment [7] it was 1; in [9], 3. In [8], the PTZ seizure stood at 300 mg/kg. The NT in [11] came to 300 mg/kg.

In the case of `COc1ccc(/C=N/NC(=O)Nc2c(C)cccc2C)cc1`, the MES in experiment [1] was 300 mg/kg; in experiment [5], 100 mg/kg. The Activity in [2] was found to be 1; in experiment [4] it was 4; in [6], 3; in [7], 3; in [9] it was 3. Further, the results for the STY seizure in experiment [3] and in experiment [10] were 100 mg/kg and 30 mg/kg, respectively. In experiment [8], this compound registered a PTZ seizure of 300 mg/kg. In experiment [11], this compound registered an NT of 300 mg/kg.

`C/C(=N\NC(=O)Nc1c(C)cccc1C)c1ccc([N+](=O)[O-])cc1`: the MES in experiment [1] and in [5] was 300 mg/kg each time. Further, the Activity is 1 in experiment [2]; 2 in experiment [4]; 2 in [6]; 1 in experiment [7]; 3 in [9]. Moreover, the figures for the STY seizure in [3] and in [10] were 300 mg/kg and 100 mg/kg, respectively. In addition, the PTZ seizure in [8] was 300 mg/kg. This compound gave an NT in [11] of 300 mg/kg.

As for `Cc1cccc(C)c1NC(=O)N/N=C/c1ccccc1`, the MES in [1] and in experiment [5] was 100 mg/kg each time. Further, the Activity is recorded as 1 in experiment [2]; 3 in experiment [4]; 3 in [6]; 4 in experiment [7]; 3 in experiment [9]. Moreover, the STY seizure was 100 mg/kg in experiment [3] and 30 mg/kg in experiment [10]. The compound also registered a PTZ seizure in experiment [8] of 300 mg/kg. The NT in experiment [11] worked out at 300 mg/kg.

`C/C(=N\NC(=O)Nc1c(C)cccc1C)c1ccccc1`: the MES was 300 mg/kg in experiment [1] and 100 mg/kg in experiment [5]. The Activity in [2] was determined as 1; in experiment [4], 2; in experiment [6], 4; in experiment [7], 3; in experiment [9] it was 3. The STY seizure in experiment [3] is 100 mg/kg; in experiment [10] it was 30 mg/kg. The PTZ seizure in experiment [8] came out at 300 mg/kg.
